Like-named read-outs stand apart in the source and are kept apart here.
Key:
[1] = tested on: stomach (gastric peristalsis); assay: Testing of the gastric peristalsis (measurements of the gastric pressure); assay type: in vivo, rats; details: for inhibition in vivo at 20 mg/kg: Rattus norvegicus, ip, read-out: Frequency decrease in %
Source text: To determine the functioning of the gastric peristalsis, rats weighing about 200 g. are narcotized by means of ketamine hydrochloride and xylazine. A catheter is introduced into the Vena jugularis of the narcotized rats and a tracheal catheter into their trachea. A stomach probe is inserted into their stomach and tied thereto. Said probe is connected via a three-way cock with a Statham pressure imparting device (P 23 DB). The stomach is sealed off by a ligature at the pylorus and at the cardia. The stomach is filled with 3 ml. of an 0.9% aqueous sodium chloride solution. The pressure waves produced by the stomach are continuously registered by a suitable recording device such as by a Watanabe Multicorder (MC 641). In order to determine the effect of the compounds to be tested, they are dissolved in physiological sodium chloride solution or are suspended in Tylose MH 50 solution. Said solutions or suspensions are administered intraperitoneally to the rats in a dosis of 20 mg./kg. The amplitudes and frequencies of the pressure wave-like movements of the stomach as they occur before and after administration of the compound to be tested, are compared.

[2] = Determination of the acute toxicity (seven-day, single intraperitoneal dose); details: in vivo, ip, white NMRI mouse, fasting, single i.p. dose, probit analysis
Protocol: The acute seven-day toxicity is determined by intraperitoneal administration of a single dose of the respective compound to a fasting white NMRI mouse. The LD50 -values are calculated via EDV by a probit analysis as described in the book "Grundbegriffe der Biometrie" (Basic biometrical definitions) by L. Cavalli-Sforza, page 153 et seq., published by Gustav Fischer Verlag, Stuttgart, 1964.

[3] = gastric pressure waves, narcotized rats, 20 mg./kg. intraperitoneally, before vs after administration

Structure (SMILES) | inhibition in vivo at 20 mg/kg [1, 3] | Factor of the increase in amplitude [1, 3] | LD50 at 168 h [2] | inhibition in vivo at 20 mg/kg [1]
COC(=O)c1c(OC)c2ccccc2n1CCN(C)C.Cl [(A), 1-(β-Dimethylaminoethyl)-2-methoxy carbonyl-3-methoxy-indole hydrochloride] | 3.3% | 6.2 | 171 mg/kg | –
COc1c(C(N)=O)n(CCN(C)C)c2ccccc12 [(L), 1-(β-dimethylaminoethyl)-2-amino carbonyl-3-methoxy indole] | 28% | 13.9 | 68 mg/kg | –
COc1c(C(=O)O)n(CCN(C)C)c2ccccc12 [(K), 1-(β-dimethylaminoethyl)-2-hydroxy carbonyl-3-methoxy indole] | 21% | 3.6 | 967 mg/kg | –
CNC(=O)c1c(OC)c2ccccc2n1CCN(C)C [(M), 1-(β-dimethylaminoethyl)-2-methylamino carbonyl-3-methoxy indole] | 13% | 21.4 | 68 mg/kg | –
COC(=O)c1c(OCc2ccccc2)c2cc(Cl)ccc2n1CCN(C)C.Cc1ccc(S(=O)(=O)O)cc1 [(E), 1-(β-dimethylaminoethyl)-2-methoxy carbonyl-3-benzyloxy-5-chloroindole toluene-4-sulfonate] | – | 0.6 | 283 mg/kg | -2%
COC(=O)c1c(OC(C)C)c2cc(C)ccc2n1CCN(C)C.Cl [(D), 1-(β-dimethylaminoethyl)-2-methoxy carbonyl-3-isopropyloxy-5-methyl indole hydrochloride] | 19% | 6.9 | 137 mg/kg | –
COC(=O)c1c(OC)c2ccccc2n1CCCCN(C)C.Cc1ccc(S(=O)(=O)O)cc1 [(H), 1-(δ-dimethylaminobutyl)-2-methoxy carbonyl-3-methoxy indole toluene-4-sulfonate] | – | 3.5 | 164 mg/kg | 11%
CCOC(=O)c1c(OCC)c2ccc(Cl)cc2n1CCN(C)C.Cc1ccc(S(=O)(=O)O)cc1 [(F), 1-(β-dimethylaminoethyl)-2-ethoxy carbonyl-3-ethoxy-6-chloro indole toluene-4-sulfonate] | – | 10.9 | 226 mg/kg | 5%
COC(=O)c1c(OC)c2ccccc2n1CCCNC(C)C.Cl [(G), 1-(γ-isopropylaminopropyl)-2-methoxy carbonyl-3-methoxy indole hydrochloride] | 29% | 8.3 | 91 mg/kg | –
CCOc1c(C(=O)OC)n(CCN(C)C)c2ccc(Cl)cc12.Cl [(C), 1-(β-dimethylaminoethyl)-2-methoxy carbonyl-3-ethoxy-5-chloro indole hydrochloride] | 9% | 1.4 | 141 mg/kg | –
COC(=O)c1c(OC)c2ccc(C)cc2n1CCN(C)C.Cl [(B), 1-(β-dimethylaminoethyl)-2-methoxy carbonyl-3-methoxy-6-methyl indole hydrochloride] | 7% | 22.7 | 68 mg/kg | –
COC(=O)c1c(OC)c2ccccc2n1CCCN1CCCCC1 [(I), 1-(γ-N-piperidinopropyl)-2-methoxy carbonyl-3-methoxy indole maleinate] | 15% | 8.6 | 141 mg/kg | –

Source: patent US4374846A, “N-Amino alkyl indole compounds compositions containing same, and a method of using same in therapy of disorders of gastrointestinal motility” (Kali-Chemie Pharma GmbH, priority 1979, dated 1983)
